One compound from ChEMBL document CHEMBL1165933, “Diosgenin, a plant-derived sapogenin, enhances regulatory T-cell immunity in the intestine of mice with food allergy” (J Nat Prod, 2010) can be followed below.

Calls of active or inactive are those of the source. The rule behind the calls is not given here.

Holding throughout (type): functional, organism-based
For assay [1], the system named is Mus musculus. Nature of the assay: Effect on TGFbeta+ cells in ovalbumin-sensitized and repeatedly challenged BALB/c mouse food allergy model at 200 mg/kg, po by immunohistochemistry. Set-up: dose 200 mg/kg.
The test system of assay [2] is Mus musculus. The experiment in a line: Antiallergic effect in ovalbumin-sensitized and repeatedly challenged BALB/c mouse food allergy model assessed as inhibition of duodenal GATA3 expression at 200 mg/kg, po by immunohistochemistry. Also on record: dose 200 mg/kg.
Assay [3] concerns Mus musculus. The experiment in a line: Enhancement in regulatory T-cell immunity in intestine of ovalbumin-sensitized and repeatedly challenged BALB/c mouse food allergy model assessed as increase in Foxp3+ and IL10+ cells at 200 mg/kg, po by immunohistochemistry. Set-up: dose 200 mg/kg.
Assay [4] concerns Mus musculus. Nature of the assay: Antiallergic effect in ovalbumin-sensitized and repeatedly challenged BALB/c mouse food allergy model assessed as attenuation of duodenal interleukin-4 expression at 100 mg/kg, po by immunohistochemistry. Set-up: dose 100 mg/kg.
Assay [5] concerns Mus musculus. The experiment in a line: Enhancement in regulatory T-cell immunity in intestine of ovalbumin-sensitized and repeatedly challenged BALB/c mouse food allergy model assessed as increase in Foxp3+ and IL10+ cells at 100 mg/kg, po by RT-PCR. Also on record: dose 100 mg/kg.
Assay [6] concerns Mus musculus. Nature of the assay: Effect on T-cell infiltration in ovalbumin-sensitized and repeatedly challenged BALB/c mouse food allergy model assessed as CD3+ cells at 200 mg/kg, po by immunohistochemistry. Also on record: dose 200 mg/kg.
For assay [7], the system named is Mus musculus. Nature of the assay: Enhancement in regulatory T-cell immunity in intestine of ovalbumin-sensitized and repeatedly challenged BALB/c mouse food allergy model assessed as increase in Foxp3+ and IL10+ cells at 100 mg/kg, po by immunohistochemistry. Also on record: dose 100 mg/kg.
The subject of assay [8] is Mus musculus. Nature of the assay: Enhancement in regulatory T-cell immunity in intestine of ovalbumin-sensitized and repeatedly challenged BALB/c mouse food allergy model assessed as increase in Foxp3+ and IL10+ cells at 200 mg/kg, po by RT-PCR. Also on record: dose 200 mg/kg.
In assay [9] the test system is Mus musculus. The experiment in a line: Effect on T-cell infiltration in ovalbumin-sensitized and repeatedly challenged BALB/c mouse food allergy model assessed as CD3+ cells at 100 mg/kg, po by immunohistochemistry. Set-up: dose 100 mg/kg.
In assay [10] the test system is Mus musculus. Nature of the assay: Antiallergic effect in ovalbumin-sensitized and repeatedly challenged BALB/c mouse food allergy model assessed as attenuation of duodenal interleukin-4 expression at 200 mg/kg, po by immunohistochemistry. Also on record: dose 200 mg/kg.
Assay [11] has as its system Mus musculus. Nature of the assay: Effect on TGFbeta+ cells in ovalbumin-sensitized and repeatedly challenged BALB/c mouse food allergy model at 100 mg/kg, po by immunohistochemistry. Set-up: dose 100 mg/kg.
Assay [12] relates to Mus musculus. Nature of the assay: Antiallergic effect in ovalbumin-sensitized and repeatedly challenged BALB/c mouse food allergy model assessed as inhibition of duodenal GATA3 expression at 100 mg/kg, po by immunohistochemistry. Also on record: dose 100 mg/kg.

In the case of `C[C@@H]1CC[C@@]2(OC1)O[C@H]1C[C@H]3[C@@H]4CC=C5C[C@@H](O)CC[C@]5(C)[C@H]4CC[C@]3(C)[C@H]1[C@@H]2C`, the result with Mus musculus [1], in the assay with Mus musculus [6], in the assay on Mus musculus [9] and in the assay with Mus musculus [11] was inactive. For the same compound, the inhibition result with Mus musculus [2], in the assay with Mus musculus [4], in the assay on Mus musculus [10] and with Mus musculus [12] was “Active” throughout. Moreover, the result with Mus musculus [3], in the assay with Mus musculus [5], in the assay on Mus musculus [7] and with Mus musculus [8] was Active.
